What was measured:
Experiment in all cases: EC50 assay: Ba/F3 stable cell proliferation (CCK-8, 72 h)
Assay type in all cases: cell-based
Ba/F3 stable cells [1] = target: T1, Ba/F3 stable cells (Homo sapiens, UniProt P00533, DUP768-770, cells depend on it); details: Ba/F3-EGFR D770-N771insSVD cells
T1 construct: EC50 Ba/F3-EGFR D770-N771insSVD; other: Ba/F3-EGFR D770-N771insSVD cells, 72 h, CCK-8
Summary of the method: (§1)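 Ba/F3 stable cells were seeded at 4,000 cells/90 μL/well in 96-well plates and held 2 h at 37° C. in 5% CO2, then given 10 μL of serially titrated compound (0.1% DMSO final). After 72 h at 37° C., CCK-8 reagent was added for 4 hours and absorbance read at 450 nm to derive EC50.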

Ba/F3 stable cells [2] = target: T2, Ba/F3 stable cells (Homo sapiens, UniProt P00533, INS763FQEA, cells depend on it); details: Ba/F3-EGFR A763-Y764insFQEA cells
T2 construct: EC50 Ba/F3-EGFR A763-Y764insFQEA; other: Ba/F3-EGFR A763-Y764insFQEA cells, 72 h, CCK-8
Summary of the method: as §1

Ba/F3 stable cells [3] = target: T3, Ba/F3 stable cells (Homo sapiens, UniProt P00533, T790M/L858R, cells depend on it); details: Ba/F3-EGFR L858R-T790M cells
T3 construct: EC50 Ba/F3-EGFR L858R-T790M; other: Ba/F3-EGFR L858R-T790M cells, 72 h, CCK-8
Summary of the method: as §1

Ba/F3 stable cells [4] = target: T4, Ba/F3 stable cells (Homo sapiens, UniProt P04626, DUP772-775, cells depend on it); details: Ba/F3-HER2 A775-G776insYVMA cells
T4 construct: EC50 Ba/F3-HER2 A775-G776insYVMA; other: Ba/F3-HER2 A775-G776insYVMA cells, 72 h, CCK-8
Summary of the method: as §1

Ba/F3 stable cells [5] = target: T5, Ba/F3 stable cells (Homo sapiens, UniProt P00533, DUP767-769, cells depend on it); details: Ba/F3-EGFR V769-D770insASV cells
T5 construct: EC50 Ba/F3-EGFR V769-D770insASV; other: Ba/F3-EGFR V769-D770insASV cells, 72 h, CCK-8
Summary of the method: as §1

Ba/F3 stable cells [6] = target: T6, Ba/F3 stable cells (Homo sapiens, UniProt P00533, DUP771-773, cells depend on it); details: Ba/F3-EGFR H773-V774insNPH cells
T6 construct: EC50 Ba/F3-EGFR H773-V774insNPH; other: Ba/F3-EGFR H773-V774insNPH cells, 72 h, CCK-8
Summary of the method: as §1

T3 sequence (P00533 whole entry T790M/L858R): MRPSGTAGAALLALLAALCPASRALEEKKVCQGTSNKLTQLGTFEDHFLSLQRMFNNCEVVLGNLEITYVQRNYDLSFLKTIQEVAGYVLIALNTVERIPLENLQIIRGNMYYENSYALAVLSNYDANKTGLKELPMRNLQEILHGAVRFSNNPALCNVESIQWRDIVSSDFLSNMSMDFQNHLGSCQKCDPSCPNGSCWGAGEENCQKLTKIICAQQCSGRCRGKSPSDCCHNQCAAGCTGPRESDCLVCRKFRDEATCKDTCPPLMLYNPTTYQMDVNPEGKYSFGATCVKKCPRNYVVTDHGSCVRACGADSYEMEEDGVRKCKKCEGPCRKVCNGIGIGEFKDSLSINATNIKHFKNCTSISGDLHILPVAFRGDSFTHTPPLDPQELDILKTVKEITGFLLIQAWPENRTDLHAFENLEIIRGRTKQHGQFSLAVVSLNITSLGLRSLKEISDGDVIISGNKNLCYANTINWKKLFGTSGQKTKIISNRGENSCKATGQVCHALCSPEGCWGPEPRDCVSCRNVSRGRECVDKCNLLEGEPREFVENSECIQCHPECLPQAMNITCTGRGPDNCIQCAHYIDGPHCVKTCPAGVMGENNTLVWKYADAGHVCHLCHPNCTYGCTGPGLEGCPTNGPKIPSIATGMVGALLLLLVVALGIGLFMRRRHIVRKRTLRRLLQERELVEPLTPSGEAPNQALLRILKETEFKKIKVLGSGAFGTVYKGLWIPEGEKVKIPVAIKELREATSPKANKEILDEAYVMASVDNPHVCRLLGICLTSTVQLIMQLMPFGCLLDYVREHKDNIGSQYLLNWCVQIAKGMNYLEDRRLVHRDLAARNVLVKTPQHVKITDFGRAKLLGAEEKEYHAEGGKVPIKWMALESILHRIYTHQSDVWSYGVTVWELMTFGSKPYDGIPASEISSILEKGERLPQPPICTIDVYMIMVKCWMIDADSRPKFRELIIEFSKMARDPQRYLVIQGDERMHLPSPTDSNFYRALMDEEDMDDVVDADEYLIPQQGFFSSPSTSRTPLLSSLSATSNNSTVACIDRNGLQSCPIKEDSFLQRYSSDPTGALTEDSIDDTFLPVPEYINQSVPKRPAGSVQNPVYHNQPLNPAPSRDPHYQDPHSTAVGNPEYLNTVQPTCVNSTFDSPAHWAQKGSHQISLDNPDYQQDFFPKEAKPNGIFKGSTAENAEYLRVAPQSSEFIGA
T2 sequence (P00533 with tags, fused parts or gaps INS763FQEA): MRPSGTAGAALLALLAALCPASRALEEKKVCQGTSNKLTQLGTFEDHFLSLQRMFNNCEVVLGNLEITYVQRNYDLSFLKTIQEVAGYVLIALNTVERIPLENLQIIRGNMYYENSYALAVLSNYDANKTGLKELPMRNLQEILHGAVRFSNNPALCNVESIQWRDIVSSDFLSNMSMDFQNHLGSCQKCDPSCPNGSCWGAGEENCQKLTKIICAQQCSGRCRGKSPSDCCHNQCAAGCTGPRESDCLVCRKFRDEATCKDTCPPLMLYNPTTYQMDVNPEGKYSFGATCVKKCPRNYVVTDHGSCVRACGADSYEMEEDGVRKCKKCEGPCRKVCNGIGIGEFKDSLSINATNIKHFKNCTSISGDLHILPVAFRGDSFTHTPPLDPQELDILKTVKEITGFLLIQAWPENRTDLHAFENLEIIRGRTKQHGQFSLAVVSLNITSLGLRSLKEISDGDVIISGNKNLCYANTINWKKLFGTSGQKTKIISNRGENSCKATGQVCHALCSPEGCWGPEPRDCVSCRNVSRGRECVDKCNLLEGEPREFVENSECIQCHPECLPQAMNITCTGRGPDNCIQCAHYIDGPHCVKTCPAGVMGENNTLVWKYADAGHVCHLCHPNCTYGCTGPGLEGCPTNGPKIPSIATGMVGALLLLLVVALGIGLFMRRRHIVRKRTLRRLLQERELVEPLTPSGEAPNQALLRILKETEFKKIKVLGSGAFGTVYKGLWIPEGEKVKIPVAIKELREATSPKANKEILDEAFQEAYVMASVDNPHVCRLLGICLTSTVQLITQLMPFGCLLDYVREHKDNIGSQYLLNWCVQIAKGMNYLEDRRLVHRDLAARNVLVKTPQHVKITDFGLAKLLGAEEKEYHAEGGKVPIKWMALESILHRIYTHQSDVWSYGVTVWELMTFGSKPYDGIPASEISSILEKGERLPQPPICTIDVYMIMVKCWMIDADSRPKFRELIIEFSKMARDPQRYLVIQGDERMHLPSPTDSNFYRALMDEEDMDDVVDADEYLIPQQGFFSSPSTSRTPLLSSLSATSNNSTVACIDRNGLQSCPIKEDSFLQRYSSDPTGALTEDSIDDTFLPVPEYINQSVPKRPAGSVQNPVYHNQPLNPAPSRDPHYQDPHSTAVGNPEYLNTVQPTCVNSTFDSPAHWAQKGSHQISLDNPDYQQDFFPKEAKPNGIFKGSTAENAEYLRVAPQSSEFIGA
T5 sequence (P00533 with tags, fused parts or gaps DUP767-769): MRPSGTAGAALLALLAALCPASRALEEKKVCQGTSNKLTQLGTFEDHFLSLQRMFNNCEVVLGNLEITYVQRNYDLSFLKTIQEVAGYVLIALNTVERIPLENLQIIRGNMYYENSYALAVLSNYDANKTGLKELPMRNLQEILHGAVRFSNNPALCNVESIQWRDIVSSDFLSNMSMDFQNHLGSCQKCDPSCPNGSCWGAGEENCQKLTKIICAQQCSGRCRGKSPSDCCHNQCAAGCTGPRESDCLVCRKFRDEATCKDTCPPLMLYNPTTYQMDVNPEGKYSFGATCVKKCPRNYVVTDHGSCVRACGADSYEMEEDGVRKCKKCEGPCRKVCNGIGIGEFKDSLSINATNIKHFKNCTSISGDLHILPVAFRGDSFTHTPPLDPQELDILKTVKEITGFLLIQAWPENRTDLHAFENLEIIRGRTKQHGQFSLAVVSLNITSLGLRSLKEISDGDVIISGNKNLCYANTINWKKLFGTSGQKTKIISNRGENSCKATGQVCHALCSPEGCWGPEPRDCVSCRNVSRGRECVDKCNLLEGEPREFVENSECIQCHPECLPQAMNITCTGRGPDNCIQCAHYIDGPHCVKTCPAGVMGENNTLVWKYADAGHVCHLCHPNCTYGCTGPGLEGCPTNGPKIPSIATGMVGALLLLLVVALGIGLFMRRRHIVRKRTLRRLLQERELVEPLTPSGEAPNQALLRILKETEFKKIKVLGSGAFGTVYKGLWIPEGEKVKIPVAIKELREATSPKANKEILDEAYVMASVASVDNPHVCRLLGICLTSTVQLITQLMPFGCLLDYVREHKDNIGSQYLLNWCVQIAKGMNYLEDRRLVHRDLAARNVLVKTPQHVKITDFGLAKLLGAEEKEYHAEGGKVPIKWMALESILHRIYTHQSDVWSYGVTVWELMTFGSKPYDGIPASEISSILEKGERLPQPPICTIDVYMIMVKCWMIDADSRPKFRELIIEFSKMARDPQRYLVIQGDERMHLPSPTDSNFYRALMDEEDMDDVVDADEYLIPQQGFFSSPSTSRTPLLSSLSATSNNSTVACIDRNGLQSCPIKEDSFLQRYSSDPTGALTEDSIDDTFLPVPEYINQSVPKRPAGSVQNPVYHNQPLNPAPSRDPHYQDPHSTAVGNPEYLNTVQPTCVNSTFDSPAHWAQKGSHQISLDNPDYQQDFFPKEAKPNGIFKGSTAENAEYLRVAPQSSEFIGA
T6 sequence (P00533 with tags, fused parts or gaps DUP771-773): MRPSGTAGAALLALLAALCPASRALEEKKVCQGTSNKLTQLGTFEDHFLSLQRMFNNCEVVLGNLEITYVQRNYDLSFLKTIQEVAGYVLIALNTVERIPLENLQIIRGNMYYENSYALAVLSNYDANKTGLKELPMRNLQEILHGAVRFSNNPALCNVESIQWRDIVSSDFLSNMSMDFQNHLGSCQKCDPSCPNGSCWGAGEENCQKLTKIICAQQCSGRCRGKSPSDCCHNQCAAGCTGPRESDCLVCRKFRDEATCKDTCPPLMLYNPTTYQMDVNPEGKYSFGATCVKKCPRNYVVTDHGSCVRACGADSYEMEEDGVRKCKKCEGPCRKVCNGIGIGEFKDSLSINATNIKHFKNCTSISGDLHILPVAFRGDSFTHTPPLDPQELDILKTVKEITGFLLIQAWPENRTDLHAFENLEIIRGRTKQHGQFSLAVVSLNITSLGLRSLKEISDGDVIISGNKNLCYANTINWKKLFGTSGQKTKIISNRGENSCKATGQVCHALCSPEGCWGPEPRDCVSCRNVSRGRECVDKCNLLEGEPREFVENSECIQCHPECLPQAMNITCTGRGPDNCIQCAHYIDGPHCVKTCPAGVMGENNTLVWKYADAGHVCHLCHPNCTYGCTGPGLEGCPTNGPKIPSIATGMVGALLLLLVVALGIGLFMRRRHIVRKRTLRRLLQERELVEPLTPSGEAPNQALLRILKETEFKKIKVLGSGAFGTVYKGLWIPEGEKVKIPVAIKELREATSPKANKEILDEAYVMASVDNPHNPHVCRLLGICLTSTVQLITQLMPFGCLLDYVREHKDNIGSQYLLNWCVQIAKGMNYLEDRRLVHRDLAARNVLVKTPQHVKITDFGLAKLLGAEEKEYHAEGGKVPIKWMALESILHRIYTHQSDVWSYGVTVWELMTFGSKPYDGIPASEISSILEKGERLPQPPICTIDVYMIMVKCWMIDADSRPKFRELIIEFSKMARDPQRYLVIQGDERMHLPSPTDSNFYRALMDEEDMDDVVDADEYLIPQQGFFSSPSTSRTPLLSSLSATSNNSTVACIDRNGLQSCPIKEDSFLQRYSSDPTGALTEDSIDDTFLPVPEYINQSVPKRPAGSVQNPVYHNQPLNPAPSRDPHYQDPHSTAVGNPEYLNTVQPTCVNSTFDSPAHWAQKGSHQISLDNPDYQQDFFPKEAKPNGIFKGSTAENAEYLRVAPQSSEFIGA

| EC50 (Ba/F3 stable cells [1]) [nM] | EC50 (Ba/F3 stable cells [2]) [nM] | EC50 (Ba/F3 stable cells [3]) [nM] | EC50 (Ba/F3 stable cells [4]) [nM] | EC50 (Ba/F3 stable cells [5]) [nM] | EC50 (Ba/F3 stable cells [6]) [nM] | Compound |
| --- | --- | --- | --- | --- | --- | --- |
| 200 to 1000 | ≤ 200 | 200 to 1000 | ≤ 200 | ≤ 200 | ≤ 200 | C=CC(=O)N1CCC(Oc2cc3c(Nc4cccc5c4CCC5)ncnc3cc2OC)CC1 [Compound 156, 1-(4-((4-((2,3-dihydro-1H-inden-4-yl)amino)-7-methoxyquinazolin-6-yl)oxy)piperidin-1-yl)prop-2-en-1-one] |
| > 1000 | ≤ 200 | ≤ 200 | > 1000 | 200 to 1000 | 200 to 1000 | C=CC(=O)N1CCC(Oc2cc3c(Nc4ccc5ccccc5n4)ncnc3cc2OC)CC1 [Compound 158, 1-(4-((7-methoxy-4-(quinolin-2-ylamino)quinazolin-6-yl)oxy)piperidin-1-yl)prop-2-en-1-one] |
| > 1000 | ≤ 200 | 200 to 1000 | 200 to 1000 | 200 to 1000 | 200 to 1000 | C=CC(=O)N1CCC(Oc2cc3c(Nc4cc5ccccc5cn4)ncnc3cc2OC)CC1 [Compound 159, 1-(4-((4-(isoquinolin-3-ylamino)-7-methoxyquinazolin-6-yl)oxy)piperidin-1-yl)prop-2-en-1-one] |
| > 1000 | ≤ 200 | 200 to 1000 | > 1000 | ≤ 200 | 200 to 1000 | C=CC(=O)N1CCC(Oc2cc3c(Nc4ccc5ccccc5c4Cl)ncnc3cc2OC)CC1 [Compound 160, 1-(4-((4-((1-chloronaphthalen-2-yl)amino)-7-methoxyquinazolin-6-yl)oxy)piperidin-1-yl)prop-2-en-1-one] |
| > 1000 | ≤ 200 | 200 to 1000 | > 1000 | 200 to 1000 | 200 to 1000 | C=CC(=O)N1CCC(Oc2cc3c(Nc4nccc5ccccc45)ncnc3cc2OC)CC1 [Compound 161, 1-(4-((4-(isoquinolin-1-ylamino)-7-methoxyquinazolin-6-yl)oxy)piperidin-1-yl)prop-2-en-1-one] |
| > 1000 | ≤ 200 | ≤ 200 | 200 to 1000 | ≤ 200 | 200 to 1000 | C=CC(=O)N1CCC(Oc2cc3c(Nc4ccnc5ccccc45)ncnc3cc2OC)CC1 [Compound 162, 1-(4-((7-methoxy-4-(quinolin-4-ylamino)quinazolin-6-yl)oxy)piperidin-1-yl)prop-2-en-1-one] |
| 200 to 1000 | ≤ 200 | ≤ 200 | 200 to 1000 | ≤ 200 | 200 to 1000 | C=CC(=O)N1CCC(Oc2cc3c(Nc4ccc(Cl)c5ccccc45)ncnc3cc2OC)CC1 [Compound 164, 1-(4-((4-((4-chloronaphthalen-1-yl)amino)-7-methoxyquinazolin-6-yl)oxy)piperidin-1-yl)prop-2-en-1-one] |
| > 1000 | ≤ 200 | 200 to 1000 | > 1000 | 200 to 1000 | 200 to 1000 | C=CC(=O)N1CCC(Oc2cc3c(Nc4cccc5[nH]ccc45)ncnc3cc2OC)CC1 [Compound 165, 1-(4-((4-((1H-indol-4-yl)amino)-7-methoxyquinazolin-6-yl)oxy)piperidin-1-yl)prop-2-en-1-one] |
| > 1000 | ≤ 200 | 200 to 1000 | ≤ 200 | ≤ 200 | ≤ 200 | C=CC(=O)N1CCC(Oc2cc3c(Nc4cccc5cc[nH]c45)ncnc3cc2OC)CC1 [Compound 166, 1-(4-((4-((1H-indol-7-yl)amino)-7-methoxyquinazolin-6-yl)oxy)piperidin-1-yl)prop-2-en-1-one] |
| > 1000 | ≤ 200 | ≤ 200 | 200 to 1000 | 200 to 1000 | 200 to 1000 | C=CC(=O)N1CCC(Oc2cc3c(Nc4ccc(C)c5ccccc45)ncnc3cc2OC)CC1 [Compound 167, 1-(4-((7-methoxy-4-((4-methylnaphthalen-1-yl)amino)quinazolin-6-yl)oxy)piperidin-1-yl)prop-2-en-1-one] |
| 200 to 1000 | ≤ 200 | > 1000 | ≤ 200 | ≤ 200 | ≤ 200 | C=CC(=O)N1CCC(Oc2cc3c(Nc4ccc5c(c4)CCN5)ncnc3cc2OC)CC1 [Compound 168, 1-(4-((4-(indolin-5-ylamino)-7-methoxyquinazolin-6-yl)oxy)piperidin-1-yl)prop-2-en-1-one] |
